Where two headings read alike, the source gives them in different places. Where a SMILES comes first, the peptide text is derived from it. [ ]: non-standard residue; d: D form. Hiv = CC(C)[C@H](O)C(=O)O
Legend:
[1] = system: P. falciparum 3D7 parasites; assay: P. falciparum growth inhibition assay, 1-cycle (72 h treatment), SYBR DNA staining (library screen at 2 μg/mL and dose-response); assay type: cell-based, Plasmodium falciparum; conditions: for activity at 2 µg/mL: Plasmodium falciparum
[2] = system: P. falciparum 3D7 parasites; assay: P. falciparum growth inhibition assay, 2-cycle (120 h treatment), delayed-death screen and dose-response; assay type: cell-based, Plasmodium falciparum; conditions: for activity at 2 µg/mL: Plasmodium falciparum
[3] = system: T. gondii RH strain (RH-Tub-eYFP) tachyzoites; assay: microbe, parasite or virus in culture; assay type: cell-based, Toxoplasma gondii; conditions: 72 h; for percent parasite growth at 2 µg/mL: Toxoplasma gondii
[4] = P. falciparum 3D7, 72 h, parasite screen at 2 μg/mL, % growth, replicate 1
[5] = P. falciparum 3D7, 72 h, parasite screen at 2 μg/mL, % growth, replicate 2
[6] = P. falciparum 3D7, 120 h, parasite screen at 2 μg/mL, % growth, replicate 1
[7] = P. falciparum 3D7, 120 h, parasite screen at 2 μg/mL, % growth, replicate 2
[8] = T. gondii, parasite screen at 2 μg/mL, % growth, replicate 1
[9] = T. gondii, parasite screen at 2 μg/mL, % growth, replicate 2
[10] = P. falciparum, 72 h, parasite screen 2 μg/mL, % growth, replicate 1
[11] = P. falciparum, 72 h, parasite screen 2 μg/mL, % growth, replicate 2
[12] = P. falciparum, 120 h, parasite screen 2 μg/mL, % growth, replicate 1
[13] = P. falciparum, 120 h, parasite screen 2 μg/mL, % growth, replicate 2
[14] = T. gondii, parasite screen 2 μg/mL, % growth, replicate 1
[15] = T. gondii, parasite screen 2 μg/mL, % growth, replicate 2

## CCOC(=O)[C@H](Cc1ccccc1)NC(=O)c1cc(Cl)c2c(c1O)C(=O)O[C@H](C)C2 [BIA-O1589]
[1]; [4]
  Pf_72h_%Growth_Rep1: 85.35%
[1]; [5]
  Pf_72h_%Growth_Rep2: 104.78%
[2]; [6]
  Pf_120h_%Growth_Rep1: 89.48%
[2]; [7]
  Pf_120h_%Growth_Rep2: 144.99%
[3]; [8]
  Tg_72h_%Growth_Rep1: 74.06%
[3]; [9]
  Tg_72h_%Growth_Rep2: 66.00%

## CC=C(C)c1c(Cl)c(O)c(C)c2c1Oc1c(Cl)c(O)c(Cl)c(C)c1C(=O)O2 [BIA-N1159]
[1]; [4]
  Pf_72h_%Growth_Rep1: 85.21%
[1]; [5]
  Pf_72h_%Growth_Rep2: 97.34%
[2]; [6]
  Pf_120h_%Growth_Rep1: 97.37%
[2]; [7]
  Pf_120h_%Growth_Rep2: 135.76%
[3]; [8]
  Tg_72h_%Growth_Rep1: 86.78%
[3]; [9]
  Tg_72h_%Growth_Rep2: 84.63%

## CCCCCCCCCCCC[C@@H](C(=O)O)[C@H](C)C(=O)O [Roccellic acid]
[1]; [10]
  Pf_72h_%Growth_Rep1: 81.49%
[1]; [11]
  Pf_72h_%Growth_Rep2: 118.80%
[2]; [12]
  Pf_120h_%Growth_Rep1: 69.96%
[2]; [13]
  Pf_120h_%Growth_Rep2: 129.33%
[3]; [14]
  Tg_72h_%Growth_Rep1: 114.12%
[3]; [15]
  Tg_72h_%Growth_Rep2: 89.45%

## CC[C@H]1CCC[C@H](O[C@H]2CC[C@H](N(C)C)[C@@H](C)O2)[C@@H](C)C(=O)C2=C[C@@H]3[C@@H](C=C(C)[C@@H]4C[C@@H](O[C@@H]5O[C@@H](C)[C@H](OC)[C@@H](OC)[C@H]5OC)C[C@@H]34)[C@@H]2CC(=O)O1 [Spinosyn D]
[1]; 3D7, 72 h treatment, mean ± S.D., n ≥ 3, read-out: IC50 (μM), P. falciparum
  IC50: > 1 µM
[1]; [10]
  Pf_72h_%Growth_Rep1: 88.37%
[1]; [11]
  Pf_72h_%Growth_Rep2: 73.59%
[1]; library screen at 2 μg/mL, 3D7, 72 h, DD from the 120 h timepoint
  Screen (P. falciparum): I
[2]; [12]
  Pf_120h_%Growth_Rep1: 102.44%
[2]; [13]
  Pf_120h_%Growth_Rep2: 14.31%
[3]; [14]
  Tg_72h_%Growth_Rep1: 127.19%
[3]; [15]
  Tg_72h_%Growth_Rep2: 79.47%

## COc1c(O)c(C)c(C)c(O)c1OC [BIA-H1651]
[1]; P. falciparum 3D7, 72 h, library screen at 2 μg/mL, % growth, replicate 1
  Pf_72h_%Growth_Rep1: 6.09%
[1]; P. falciparum 3D7, 72 h, library screen at 2 μg/mL, % growth, replicate 2
  Pf_72h_%Growth_Rep2: 2.27%
[2]; P. falciparum 3D7, 120 h, library screen at 2 μg/mL, % growth, replicate 1
  Pf_120h_%Growth_Rep1: 17.29%
[2]; P. falciparum 3D7, 120 h, library screen at 2 μg/mL, % growth, replicate 2
  Pf_120h_%Growth_Rep2: 12.27%
[3]; T. gondii RH, library screen at 2 μg/mL, % growth, replicate 1
  Tg_72h_%Growth_Rep1: 138.57%
[3]; T. gondii RH, library screen at 2 μg/mL, % growth, replicate 2
  Tg_72h_%Growth_Rep2: 100.12%

## C/C(=C\C(=O)OCCCCCCCCC(=O)O)C[C@@H]1OC[C@H](C[C@@H]2O[C@H]2[C@@H](C)[C@H](C)O)[C@@H](O)[C@H]1O [Pseudomonic acid]
[1]; 3D7, P. falciparum, 72 h, parasite screen 2 μg/mL, % growth, replicate 1, read-out: Pf_72h_%Growth_Rep1
  activity at 2 µg/mL: 29.1%
[1]; 3D7, P. falciparum, 72 h, parasite screen 2 μg/mL, % growth, replicate 2, read-out: Pf_72h_%Growth_Rep2
  activity at 2 µg/mL: 6.31%
[2]; 3D7, P. falciparum, 120 h, parasite screen 2 μg/mL, % growth, replicate 1, read-out: Pf_120h_%Growth_Rep1
  activity at 2 µg/mL: 0.62%
[2]; 3D7, P. falciparum, 120 h, parasite screen 2 μg/mL, % growth, replicate 2, read-out: Pf_120h_%Growth_Rep2
  activity at 2 µg/mL: 28.1%
[3]; T. gondii, parasite screen 2 μg/mL, % growth, replicate 1, read-out: Tg_72h_%Growth_Rep1
  percent parasite growth at 2 µg/mL: 70.8%
[3]; T. gondii, parasite screen 2 μg/mL, % growth, replicate 2, read-out: Tg_72h_%Growth_Rep2
  percent parasite growth at 2 µg/mL: 74.5%

## CN(C)[C@@H]1C(O)=C(C(N)=O)C(=O)[C@@]2(O)C(O)=C3C(=O)c4c(O)ccc(Cl)c4[C@@H](O)[C@H]3C[C@@H]12 [Demeclocycline]
[1]; 3D7, 72 h, P. falciparum, 72 h, screen at 2 μg/mL, replicate 1, read-out: Pf_72h_%Growth_Rep1
  activity at 2 µg/mL: 85.8%
[1]; 3D7, 72 h, P. falciparum, 72 h, screen at 2 μg/mL, replicate 2, read-out: Pf_72h_%Growth_Rep2
  activity at 2 µg/mL: 87%
[2]; 3D7, 120 h, P. falciparum, 120 h, screen at 2 μg/mL, replicate 1, read-out: Pf_120h_%Growth_Rep1
  activity at 2 µg/mL: 101%
[2]; 3D7, 120 h, P. falciparum, 120 h, screen at 2 μg/mL, replicate 2, read-out: Pf_120h_%Growth_Rep2
  activity at 2 µg/mL: 94.8%
[3]; T. gondii, screen at 2 μg/mL, replicate 1, read-out: Tg_72h_%Growth_Rep1
  percent parasite growth at 2 µg/mL: 157%
[3]; T. gondii, screen at 2 μg/mL, replicate 2, read-out: Tg_72h_%Growth_Rep2
  percent parasite growth at 2 µg/mL: 107%

## CC(C)C[C@@H]1NC(=O)[C@H](C(C)C)NC(=O)[C@H](C(C)C)OC(=O)[C@@H](CC(C)C)NC(=O)[C@@H](C(C)C)NC(=O)[C@H](C(C)C)OC1=O [Sporidesmolide III] (cyclo([Hiv]VL[Hiv][dV][dL]))
[1]; [10]
  Pf_72h_%Growth_Rep1: 74.67%
[1]; [11]
  Pf_72h_%Growth_Rep2: 81.35%
[2]; [12]
  Pf_120h_%Growth_Rep1: 153.85%
[2]; [13]
  Pf_120h_%Growth_Rep2: 76.17%
[3]; [14]
  Tg_72h_%Growth_Rep1: 94.68%
[3]; [15]
  Tg_72h_%Growth_Rep2: 93.28%

## Cc1cc(=O)c2c(o1)-c1c(cc(O)c(O)c1C(=O)O)OC2 [Citromycetin]
[1]; P. falciparum, 72 h, screen at 2 μg/mL, replicate 1
  Pf_72h_%Growth_Rep1: 89.81%
[1]; P. falciparum, 72 h, screen at 2 μg/mL, replicate 2
  Pf_72h_%Growth_Rep2: 87.50%
[2]; P. falciparum, 120 h, screen at 2 μg/mL, replicate 1
  Pf_120h_%Growth_Rep1: 103.91%
[2]; P. falciparum, 120 h, screen at 2 μg/mL, replicate 2
  Pf_120h_%Growth_Rep2: 96.05%
[3]; T. gondii, screen at 2 μg/mL, replicate 1
  Tg_72h_%Growth_Rep1: 134.75%
[3]; T. gondii, screen at 2 μg/mL, replicate 2
  Tg_72h_%Growth_Rep2: 97.97%

Source: article PMC12396409, “Screening and hit evaluation of a microbial metabolite library against the pathogenic Plasmodium falciparum and Toxoplasma gondii parasites” (International Journal for Parasitology: Drugs and Drug …, 2025)
